Patent US20230092890A1, “1, 3, 4-Oxadiazole derivative compounds as histone deacetylase 6 inhibitor, and the pharmaceutical composition comprising the same” (Chong Kun Dang Pharmaceutical Corp., priority 2019, published 2023)
pIC50: −log10 of the molar value.

Columns and labels:
HDAC6 human recombinant = molecular target: T1, HDAC6 human recombinant (Homo sapiens, UniProt Q9UBN7); assay: HDAC enzyme activity inhibition (in vitro), HDAC6 assay; type: biochemical; conditions: samples at 0.1, 1, 10, 100 and 1000 nM; 37° C. 60 minutes; fluorescence Ex 390, Em 460; read-out: HDAC6 IC50
T1 construct: purchased Calbiochem 382180
T1 sequence (Q9UBN7 1-1215): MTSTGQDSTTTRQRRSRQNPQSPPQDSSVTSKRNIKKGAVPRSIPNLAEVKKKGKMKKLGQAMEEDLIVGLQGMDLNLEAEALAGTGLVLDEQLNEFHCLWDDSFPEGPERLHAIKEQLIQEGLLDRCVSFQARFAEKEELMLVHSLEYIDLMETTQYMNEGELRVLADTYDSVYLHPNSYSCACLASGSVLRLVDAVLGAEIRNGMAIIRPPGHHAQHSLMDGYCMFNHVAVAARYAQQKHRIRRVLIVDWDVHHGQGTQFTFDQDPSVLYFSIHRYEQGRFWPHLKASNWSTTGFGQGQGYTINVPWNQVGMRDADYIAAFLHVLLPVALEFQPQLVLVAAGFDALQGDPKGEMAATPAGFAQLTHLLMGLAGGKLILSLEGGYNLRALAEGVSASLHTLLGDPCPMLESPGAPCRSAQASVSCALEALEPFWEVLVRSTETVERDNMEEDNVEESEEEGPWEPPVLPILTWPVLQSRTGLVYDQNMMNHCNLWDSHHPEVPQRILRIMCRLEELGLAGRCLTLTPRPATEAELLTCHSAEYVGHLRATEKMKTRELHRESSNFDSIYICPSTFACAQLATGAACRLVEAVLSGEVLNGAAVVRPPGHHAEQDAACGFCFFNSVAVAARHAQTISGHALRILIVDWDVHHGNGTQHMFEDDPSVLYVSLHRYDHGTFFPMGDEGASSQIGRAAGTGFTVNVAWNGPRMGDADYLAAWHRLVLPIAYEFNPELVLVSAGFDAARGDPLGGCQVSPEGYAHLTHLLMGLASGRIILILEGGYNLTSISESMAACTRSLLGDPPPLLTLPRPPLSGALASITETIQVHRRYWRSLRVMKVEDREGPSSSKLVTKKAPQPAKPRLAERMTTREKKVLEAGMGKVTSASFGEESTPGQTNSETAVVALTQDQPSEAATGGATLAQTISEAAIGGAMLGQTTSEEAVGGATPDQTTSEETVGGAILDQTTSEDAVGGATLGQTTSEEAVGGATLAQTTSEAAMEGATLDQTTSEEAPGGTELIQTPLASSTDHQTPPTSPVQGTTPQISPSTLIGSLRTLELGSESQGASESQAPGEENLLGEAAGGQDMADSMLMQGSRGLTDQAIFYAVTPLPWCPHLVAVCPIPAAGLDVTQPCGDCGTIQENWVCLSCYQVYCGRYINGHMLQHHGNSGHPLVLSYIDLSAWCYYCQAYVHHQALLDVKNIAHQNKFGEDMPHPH
Experimental: A HDAC enzyme inhibitory capacity of a test material was measured by using HDAC1 Fluorimetric Drug Discovery Assay Kit (Enzolifesciences: BML-AK511) and HDAC6 human recombinant (Calbiochem: 382180). For a HDAC1 assay, samples were treated at a concentration of 100, 1000 and 10000 nM. […] After the above sample treatment, a reaction was continued at 37° C. for 60 minutes, then treated with a developer, and then subjected to a reaction at 37° C. for 30 minutes, after which fluorescence intensity (Ex 390, Em 460) was measured by using FlexStatin3 (Molecular device).

HDAC1 = molecular target: T2, HDAC1 (Homo sapiens, UniProt Q13547); assay: HDAC enzyme activity inhibition (in vitro), HDAC1 Fluorimetric Drug Discovery Assay Kit; type: biochemical; conditions: samples at 100, 1000 and 10000 nM; 37° C. 60 minutes; fluorescence Ex 390, Em 460; read-out: HDAC1 IC50
T2 construct: purchased Enzolifesciences BML-AK511
T2 sequence (Q13547 whole entry): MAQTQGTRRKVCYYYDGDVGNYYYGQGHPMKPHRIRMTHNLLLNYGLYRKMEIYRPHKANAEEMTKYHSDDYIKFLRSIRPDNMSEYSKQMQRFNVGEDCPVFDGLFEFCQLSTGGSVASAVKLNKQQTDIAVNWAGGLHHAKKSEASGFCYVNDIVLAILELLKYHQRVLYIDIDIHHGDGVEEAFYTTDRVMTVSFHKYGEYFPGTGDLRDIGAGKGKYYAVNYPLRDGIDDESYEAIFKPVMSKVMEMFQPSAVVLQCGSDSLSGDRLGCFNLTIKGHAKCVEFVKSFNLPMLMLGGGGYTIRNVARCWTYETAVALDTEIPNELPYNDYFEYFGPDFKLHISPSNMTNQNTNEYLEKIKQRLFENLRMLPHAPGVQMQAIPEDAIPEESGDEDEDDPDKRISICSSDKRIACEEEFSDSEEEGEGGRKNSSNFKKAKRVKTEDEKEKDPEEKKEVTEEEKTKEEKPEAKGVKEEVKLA
Experimental: <Experimental Example 1> Identification of HDAC Enzyme Activity Inhibition (In Vitro)
A selective HDAC6 inhibitor is important for selectivity of HDAC1 inhibition, which is a cause of side effects, and thus HDAC1/6 enzyme selectivity and cell selectivity (HDAC1: histone acetylation/HDAC6: tubulin acetylation) were identified.
A HDAC enzyme inhibitory capacity of a test material was measured by using HDAC1 Fluorimetric Drug Discovery Assay Kit (Enzolifesciences: BML-AK511) and HDAC6 human recombinant (Calbiochem: 382180). For a HDAC1 assay, samples were treated at a concentration of 100, 1000 and 10000 nM. For a HDAC6 assay, samples were treated at a concentration of 0.1, 1, 10, 100 and 1000 nM. After the above sample treatment, a reaction was continued at 37° C. for 60 minutes, then treated with a developer, and then subjected to a reaction at 37° C. for 30 minutes, after which fluorescence intensity (Ex 390, Em 460) was measured by using FlexStatin3 (Molecular device).

| pIC50 (HDAC6 human recombinant) | pIC50 (HDAC1) | SMILES |
| --- | --- | --- |
| 7.15 | < 5.00 | Cc1ccc(-c2cc3c(cc2F)n(Cc2ccc(-c4nnc(C(F)F)o4)cn2)c(=O)n3C)o1 [Compound 177, 1-((5-(5-(difluoromethyl)-1,3,4-oxadiazole-2-yl)pyridine-2-yl)methyl)-6-fluoro-3-methy 1-5-(5-methylfuran-2-yl)-1,3-dihydro-2H-benzo[d]imidazole-2-one] |
| 7.55 | < 5.00 | O=c1n(Cc2ccc(-c3nnc(C(F)F)o3)cn2)c2cc(F)ccc2n1C1CCN(C2CCC3(CC2)OCCO3)CC1 [Compound 58, 1-(1-(1,4-dioxaspiro[4.5]decane-8-yl)piperidine-4-yl)-3-((5-(5-(difluoromethyl)-1,3,4-oxadiazole-2-yl)pyridine-2-yl)methyl)-5-fluoro-1,3-dihydro-2H-benzo[d]imidazole-2-one] |
| 7.26 | < 5.00 | CN1CCC(n2c(=O)n(Cc3ccc(-c4nnc(C(F)F)o4)cn3)c3cc(F)c(-c4ccco4)cc32)CC1 [Compound 151, 1-((5-(5-(difluoromethyl)-1,3,4-oxadiazole-2-yl)pyridine-2-yl)methyl)-6-fluoro-5-(furan-2-yl)-3-(1-methylpiperidine-4-yl)-1,3-dihydro-2H-benzo[d]imidazole-2-one] |
| 7.57 | < 5.00 | O=c1n(Cc2ccc(-c3nnc(C(F)F)o3)cn2)c2cc(Cl)ccc2n1C1CCN(C2COC2)CC1 [Compound 271, 5-chloro-3-((5-(5-(difluoromethyl)-1,3,4-oxadiazole-2-yl)pyridine-2-yl)methyl)-1-(1-(oxetan-3-yl)piperidine-4-yl)-1,3-dihydro-2H-benzo[d]imidazole-2-one] |
| 6.97 | < 5.00 | Cn1c(=O)n(Cc2ccc(-c3nnc(C(F)F)o3)cn2)c2cc(F)c(N3CCN(CC(F)(F)C(F)F)CC3)cc21 [Compound 262, 1-((5-(5-(difluoromethyl)-1,3,4-oxadiazole-2-yl)pyridine-2-yl)methyl)-6-fluoro-3-methy 1-5-(4-(2,2,3,3-tetrafluoropropyl)piperazine-1-yl)-1,3-dihydro-2H-benzo[d]imidazole-2-one] |
| 7.64 | < 5.00 | CC(C)N1CCC(n2cc(-c3cc4oc(=O)n(Cc5ccc(-c6nnc(C(F)F)o6)cn5)c4cc3F)cn2)CC1 [Compound 361, 3-((5-(5-(difluoromethyl)-1,3,4-oxadiazole-2-yl)pyridine-2-yl)methyl)-5-fluoro-6-(1-(1-isopropylpiperidine-4-yl)-1H-pyrazole-4-yl)benzo[d]oxazole-2(3H)-one] |
| 6.68 | < 5.00 | Cc1ccc(-c2cc3c(cc2F)n(Cc2ccc(-c4nnc(C(F)F)o4)cc2F)c(=O)n3C)o1 [Compound 170, 1-(4-(5-(difluoromethyl)-1,3,4-oxadiazole-2-yl)-2-fluorobenzyl)-6-fluoro-3-methyl-5-(5-methylfuran-2-yl)-1,3-dihydro-2H-benzo[d]imidazole-2-one] |
| 7.62 | < 5.00 | CN1CCC(n2c(=O)n(Cc3ccc(-c4nnc(C(F)F)o4)cc3F)c3cc(F)c(-c4cccnc4)cc32)CC1 [Compound 117, 1-(4-(5-(difluoromethyl)-1,3,4-oxadiazole-2-yl)-2-fluorobenzyl)-6-fluoro-3-(1-methylpiperidine-4-yl)-5-(pyridine-3-yl)-1,3-dihydro-2H-benzo[d]imidazole-2-one] |
| 7.41 | < 5.00 | Cn1c(=O)n(Cc2ccc(-c3nnc(C(F)F)o3)cn2)c2cc(F)c(N3CCN(C(=O)CO)CC3)cc21 [Compound 266, 1-((5-(5-(difluoromethyl)-1,3,4-oxadiazole-2-yl)pyridine-2-yl)methyl)-6-fluoro-5-(4-(2-hydroxyacetyl)piperazine-1-yl)-3-methyl-1,3-dihydro-2H-benzo[d]imidazole-2-one] |
| 7.43 | < 5.00 | O=c1oc2cc(-c3cccnc3)ccc2n1Cc1ccc(-c2nnc(C(F)F)o2)cn1 [Compound 304, 3-((5-(5-(difluoromethyl)-1,3,4-oxadiazole-2-yl)pyridine-2-yl)methyl)-6-(pyridine-3-yl) benzo[d]oxazole-2(3H)-one] |
| 7.08 | < 5.00 | CS(=O)(=O)N1CCC(n2c(=O)n(Cc3ccc(-c4nnc(C(F)F)o4)cc3)c3cc(F)c(F)cc32)CC1 [Compound 194, 1-(4-(5-(difluoromethyl)-1,3,4-oxadiazole-2-yl)benzyl)-5,6-difluoro-3-(1-(methylsulfonyl)piperidine-4-yl)-1,3-dihydro-2H-benzo[d]imidazole-2-one] |
| 7.85 | < 5.00 | CN1CC[C@@H](n2c(=O)n(Cc3ccc(-c4nnc(C(F)F)o4)cn3)c3cc(F)c(-c4cccc5[nH]ccc45)cc32)C1 [Compound 273, (R)-1-((5-(5-(difluoromethyl)-1,3,4-oxadiazole-2-yl)pyridine-2-yl)methyl)-6-fluoro-5-(1H-indole-4-yl)-3-(1-methylpyrrolidine-3-yl)-1,3-dihydro-2H-benzo[d]imidazole-2-one] |
| 7.42 | < 5.00 | O=c1n(Cc2ccc(-c3nnc(C(F)F)o3)cc2F)c2cc(Cl)c(Cl)cc2n1C1CCN(C2COC2)CC1 [Compound 88, 5,6-dichloro-1-(4-(5-(difluoromethyl)-1,3,4-oxadiazole-2-yl)-2-fluorobenzyl)-3-(1-(oxetan-3-yl)piperidine-4-yl)-1,3-dihydro-2H-benzo[d]imidazole-2-one] |
| 7.38 | < 5.00 | O=c1sc2cc(-c3cnn(C4CCN(CC5(F)CC5)CC4)c3)ccc2n1Cc1ccc(-c2nnc(C(F)F)o2)cn1 [Compound 357, 3-((5-(5-(difluoromethyl)-1,3,4-oxadiazole-2-yl)pyridine-2-yl)methyl)-6-(1-(1-((1-fluorocyclopropyl)methyl)piperidine-4-yl)-1H-pyrazole-4-yl)benzo[d]thiazole-2(3H)-one] |
| 6.78 | < 5.00 | CC(C)N1CCC(c2ccc3c(c2)oc(=O)n3Cc2ccc(-c3nnc(C(F)F)o3)cn2)CC1 [Compound 313, 3-((5-(5-(difluoromethyl)-1,3,4-oxadiazole-2-yl)pyridine-2-yl)methyl)-6-(1-isopropylpiperidine-4-yl)benzo[d]oxazole-2(3H)-one] |
| 7.15 | < 5.00 | O=c1n(Cc2ccc(-c3nnc(C(F)F)o3)cc2F)c2cc(F)ccc2n1C1CCN(C2CCC2)CC1 [Compound 74, 1-(1-cyclobutylpiperidine-4-yl)-3-(4-(5-(difluoromethyl)-1,3,4-oxadiazole-2-yl)-2-fluorobenzyl)-5-fluoro-1,3-dihydro-2H-benzo[d]imidazole-2-one] |
| 6.52 | < 5.00 | O=c1n(Cc2ccc(-c3nnc(C(F)F)o3)cc2F)c2ccccc2n1C1CCN(C2COC2)C1 (stereo not shown) [Compound 21, 1-(4-(5-(difluoromethyl)-1,3,4-oxadiazole-2-yl)-2-fluorobenzyl)-3-(1-(oxetan-3-yl)pyrrolidine-3-yl)-1,3-dihydro-2H-benzo[d]imidazole-2-one] |
